PubChem BioAssay (NCI)
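Following 48 hours of exposure in 96-well plates, responses at five concentrations were used to interpolate endpoints linearly. Abbreviation: GI50, concentration required for 50% inhibition of growth. TGI marks complete inhibition of growth.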

What was measured:
Test in all cases: growth of human tumour cells (NCI), 48 h; in the data active = GI50 below about 0.43 µM; inactive = the rest
BT-549 breast = test system: BT-549 breast
T-47D breast = test system: T-47D breast
EKVX NSCLC = test system: EKVX NSCLC
ACHN renal = test system: ACHN renal
IGROV1 ovarian = test system: IGROV1 ovarian
MALME-3M melanoma = test system: MALME-3M melanoma
UACC-257 melanoma = test system: UACC-257 melanoma
RXF 393 renal = test system: RXF 393 renal
HCT-116 colon = test system: HCT-116 colon
K-562 leukemia = test system: K-562 leukemia
OVCAR-4 ovarian = test system: OVCAR-4 ovarian
SN12C renal = test system: SN12C renal
NCI/ADR-RES ovarian = test system: NCI/ADR-RES ovarian
SF-268 CNS = test system: SF-268 CNS
SF-295 CNS = test system: SF-295 CNS
MCF7 breast = test system: MCF7 breast
LOX IMVI melanoma = test system: LOX IMVI melanoma
HT29 colon = test system: HT29 colon
NCI-H23 lung = test system: NCI-H23 lung
OVCAR-3 ovarian = test system: OVCAR-3 ovarian
U251 CNS = test system: U251 CNS
SK-MEL-28 melanoma = test system: SK-MEL-28 melanoma
UO-31 renal = test system: UO-31 renal
HCC-2998 colon = test system: HCC-2998 colon
SK-MEL-5 melanoma = test system: SK-MEL-5 melanoma
DU-145 prostate = test system: DU-145 prostate
MOLT-4 leukemia = test system: MOLT-4 leukemia
MDA-MB-435 = test system: MDA-MB-435
HOP-62 NSCLC = test system: HOP-62 NSCLC
MDA-MB-231 breast = test system: MDA-MB-231 breast
MDA-N = test system: MDA-N
UACC-62 melanoma = test system: UACC-62 melanoma
HOP-92 NSCLC = test system: HOP-92 NSCLC
HS 578T breast = test system: HS 578T breast
HL-60(TB) leukemia = test system: HL-60(TB) leukemia
SK-OV-3 ovarian = test system: SK-OV-3 ovarian
OVCAR-8 ovarian = test system: OVCAR-8 ovarian
SW-620 colon = test system: SW-620 colon
NCI-H522 lung = test system: NCI-H522 lung
NCI-H226 lung = test system: NCI-H226 lung
TK-10 renal = test system: TK-10 renal
COLO 205 colon = test system: COLO 205 colon
SNB-75 CNS = test system: SNB-75 CNS
KM12 colon = test system: KM12 colon
RPMI-8226 leukemia = test system: RPMI-8226 leukemia
SF-539 CNS = test system: SF-539 CNS
SK-MEL-2 melanoma = test system: SK-MEL-2 melanoma
CCRF-CEM leukemia = test system: CCRF-CEM leukemia
HCT-15 colon = test system: HCT-15 colon
A549 NSCLC = test system: A549 NSCLC
NCI-H460 lung = test system: NCI-H460 lung
CAKI-1 renal = test system: CAKI-1 renal
A498 renal = test system: A498 renal
SNB-19 CNS = test system: SNB-19 CNS
786-0 renal = test system: 786-0 renal
M14 melanoma = test system: M14 melanoma
OVCAR-5 ovarian = test system: OVCAR-5 ovarian
PC-3 prostate = test system: PC-3 prostate
SR leukemia = test system: SR leukemia

COc1ccccc1-c1cc(=O)c2c(C)ccnc2[nH]1
33.1 µM: TGI (MDA-N)
61.4 µM: TGI (HS 578T breast)
96.6 µM: TGI (SK-MEL-5 melanoma)
inactive: GI50 (HCT-116 colon) 7.58 µM | GI50 (SF-295 CNS) 23.7 µM | GI50 (OVCAR-3 ovarian) 12.8 µM | GI50 (U251 CNS) 35.3 µM | GI50 (SK-MEL-5 melanoma) 22.6 µM | GI50 (MDA-MB-435) 6.52 µM | GI50 (MDA-N) 8.41 µM | GI50 (HL-60(TB) leukemia) 21 µM | GI50 (NCI-H460 lung) 23.9 µM | GI50 (786-0 renal) 59.9 µM | GI50 (PC-3 prostate) 21 µM
> 100 µM: TGI (T-47D breast) | TGI (EKVX NSCLC) | TGI (ACHN renal) | TGI (IGROV1 ovarian) | TGI (MALME-3M melanoma) | TGI (UACC-257 melanoma) | TGI (RXF 393 renal) | TGI (K-562 leukemia) | TGI (OVCAR-4 ovarian) | TGI (SN12C renal) | TGI (SF-268 CNS) | TGI (MCF7 breast) | TGI (LOX IMVI melanoma) | TGI (HT29 colon) | TGI (NCI-H23 lung) | TGI (U251 CNS) | TGI (SK-MEL-28 melanoma) | TGI (UO-31 renal) | TGI (HCC-2998 colon) | TGI (DU-145 prostate) | TGI (MOLT-4 leukemia) | TGI (HOP-62 NSCLC) | TGI (MDA-MB-231 breast) | TGI (UACC-62 melanoma) | TGI (HOP-92 NSCLC) | TGI (SK-OV-3 ovarian) | TGI (OVCAR-8 ovarian) | TGI (TK-10 renal) | TGI (KM12 colon) | TGI (RPMI-8226 leukemia) | TGI (SF-539 CNS) | TGI (SK-MEL-2 melanoma) | TGI (CCRF-CEM leukemia) | TGI (HCT-15 colon) | TGI (A549 NSCLC) | TGI (NCI-H460 lung) | TGI (CAKI-1 renal) | TGI (SNB-19 CNS) | TGI (786-0 renal) | TGI (M14 melanoma) | TGI (OVCAR-5 ovarian) | TGI (PC-3 prostate)
44.3 µM: TGI (BT-549 breast)
64.2 µM: TGI (SR leukemia)
69.3 µM: TGI (COLO 205 colon)
83.7 µM: TGI (HL-60(TB) leukemia)
46.3 µM: TGI (HCT-116 colon)
43.1 µM: TGI (OVCAR-3 ovarian)
98.9 µM: TGI (NCI-H226 lung)
80.1 µM: TGI (SF-295 CNS)
40.7 µM: TGI (SW-620 colon)
85.3 µM: TGI (A498 renal)
53.2 µM: TGI (NCI/ADR-RES ovarian)
30.5 µM: TGI (MDA-MB-435)
43.7 µM: TGI (NCI-H522 lung)
56.8 µM: TGI (SNB-75 CNS)

CC(C)(C)c1ccc(S(=O)(=O)N2C(c3cccc(C4CC[C@@H](C(=O)O)N4S(=O)(=O)c4ccc(C(C)(C)C)cc4)c3)CC[C@H]2C(=O)O)cc1 (some centres undefined)
87.3 µM: TGI (UO-31 renal)
> 100 µM: TGI (BT-549 breast) | TGI (T-47D breast) | TGI (EKVX NSCLC) | TGI (ACHN renal) | TGI (IGROV1 ovarian) | TGI (MALME-3M melanoma) | TGI (UACC-257 melanoma) | TGI (RXF 393 renal) | TGI (HCT-116 colon) | TGI (K-562 leukemia) | TGI (OVCAR-4 ovarian) | TGI (SN12C renal) | TGI (NCI/ADR-RES ovarian) | TGI (SF-268 CNS) | TGI (SF-295 CNS) | TGI (MCF7 breast) | TGI (LOX IMVI melanoma) | TGI (HT29 colon) | TGI (NCI-H23 lung) | TGI (OVCAR-3 ovarian) | TGI (U251 CNS) | TGI (SK-MEL-28 melanoma) | TGI (HCC-2998 colon) | TGI (SK-MEL-5 melanoma) | TGI (DU-145 prostate) | TGI (MOLT-4 leukemia) | TGI (MDA-MB-435) | TGI (HOP-62 NSCLC) | TGI (MDA-MB-231 breast) | TGI (MDA-N) | TGI (UACC-62 melanoma) | TGI (HOP-92 NSCLC) | TGI (HS 578T breast) | TGI (HL-60(TB) leukemia) | TGI (SK-OV-3 ovarian) | TGI (OVCAR-8 ovarian) | TGI (SW-620 colon) | TGI (NCI-H522 lung) | TGI (NCI-H226 lung) | TGI (TK-10 renal) | TGI (COLO 205 colon) | TGI (SNB-75 CNS) | TGI (KM12 colon) | TGI (RPMI-8226 leukemia) | TGI (SF-539 CNS) | TGI (SK-MEL-2 melanoma) | TGI (CCRF-CEM leukemia) | TGI (HCT-15 colon) | TGI (A549 NSCLC) | TGI (NCI-H460 lung) | TGI (CAKI-1 renal) | TGI (A498 renal) | TGI (SNB-19 CNS) | TGI (786-0 renal) | TGI (M14 melanoma) | TGI (OVCAR-5 ovarian) | TGI (PC-3 prostate) | TGI (SR leukemia)
